According to the supplement of paper PMC10307832:

How the values were obtained:
Assay in all cases: relative viability (nuclei count vs DMSO), 5 days (fraction); higher = more cells survive
RU-SKI 43 + Decitabine = compound: CC[C@@H](C)CNCC(=O)N1CCC2=C([C@@H]1COC3=CC=CC(=C3)C)C=CS2 [RU-SKI 43] + Nc1ncn([C@H]2C[C@H](O)[C@@H](CO)O2)c(=O)n1 [Decitabine] (partner 2 µM)
How it was run: (§1)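 Nuclei were stained with Hoechst during a one-step fixation (final 0.05% Triton X-100, 1% formaldehyde, 1 ug/ml Hoechst) carried out 5 days after dosing, then counted on 4× images. The cells, lung cancer lines in 1536-well plates, had been dosed by pin tool the day after seeding with one drug alone or a fixed anchor-drug dose plus five library-drug doses (not always all listed) in √10 steps. Relative viability is the nuclei count in treated wells divided by that in vehicle wells, and each value is the median of duplicate plates.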

Irinotecan + Bortezomib = compound: CCc1c2c(nc3ccc(OC(=O)N4CCC(N5CCCCC5)CC4)cc13)-c1cc3c(c(=O)n1C2)COC(=O)[C@]3(O)CC [Irinotecan] + CC(C)C[C@H](NC(=O)[C@H](Cc1ccccc1)NC(=O)c1cnccn1)B(O)O [Bortezomib] (partner 0.002 µM)
How it was run: as §1

Irinotecan + Foretinib = compound: CCc1c2c(nc3ccc(OC(=O)N4CCC(N5CCCCC5)CC4)cc13)-c1cc3c(c(=O)n1C2)COC(=O)[C@]3(O)CC [Irinotecan] + COc1cc2c(Oc3ccc(NC(=O)C4(C(=O)Nc5ccc(F)cc5)CC4)cc3F)ccnc2cc1OCCCN1CCOCC1 [Foretinib] (partner 0.25 µM)
How it was run: as §1

Cell Line	relative viability (RU-SKI 43 + Decitabine; first compound 0.1 µM)	relative viability (RU-SKI 43 + Decitabine; first compound 0.3162 µM)	relative viability (RU-SKI 43 + Decitabine; first compound 1 µM)	relative viability (RU-SKI 43 + Decitabine; first compound 3.162 µM)	relative viability (RU-SKI 43 + Decitabine; first compound 10 µM)	relative viability (Irinotecan + Bortezomib; first compound 0.6325 µM)	relative viability (Irinotecan + Bortezomib; first compound 2 µM)	relative viability (Irinotecan + Bortezomib; first compound 6.325 µM)	relative viability (Irinotecan + Bortezomib; first compound 20 µM)	relative viability (Irinotecan + Foretinib; first compound 0.6325 µM)	relative viability (Irinotecan + Foretinib; first compound 2 µM)	relative viability (Irinotecan + Foretinib; first compound 6.325 µM)	relative viability (Irinotecan + Foretinib; first compound 20 µM)
NCI-H23	0.309	0.319	0.326	0.291	0.335	0.941	0.664	0.291	0.306	0.471	0.258	0.227	0.25
NCI-H441	0.212	0.238	0.228	0.229	0.223	0.413	0.378	0.435	0.358	0.786	0.66	0.29	0.342
NCI-H1437	0.591	0.582	0.601	0.56	0.557	0.399	0.355	0.285	0.171	0.954	0.616	0.42	0.368
HARA	0.497	0.682	0.566	0.46	0.47	0.955	0.291	0.177	0.156	0.315	0.174	0.116	0.127
LOU-NH91	0.786	0.828	0.809	0.805	0.824	0.486	0.442	0.359	0.413	0.871	0.756	0.374	0.294
COR-L 105	0.625	0.674	0.703	0.629	0.625	0.676	0.798	0.627	0.291	1.11	0.8	0.682	0.524
NCI-H838	0.416	0.489	0.469	0.429	0.444	0.986	0.588	0.583	0.149	1.11	0.743	0.392	0.298
NCI-H1975	0.346	0.377	0.439	0.381	0.276	0.294	0.31	0.278	0.129	0.816	0.964	0.385	0.158
NCI-H647	0.383	0.404	0.393	0.43	0.353	0.76	0.462	0.227	0.103	0.986	0.742	0.174	0.132
A-427	0.555	0.477	0.568	0.551	0.538	–	0.427	0.198	0.187	–	0.24	0.229	0.219
HCC-366	0.3	0.399	0.328	0.354	0.352	0.731	0.361	0.0441	0.0691	0.346	0.114	0.0566	0.0694
